Test results taken from patent publication US12077503B2, “Substituted cyclic amides and their use as herbicides” (FMC CORPORATION, priority 2015, dated 2024).

Tests used:
Format in all cases: in vivo
[1] = system: pigweed (Amaranthus retroflexus); experiment: Test A preemergence; conditions: Amaranthus retroflexus, pre-emergence, 240 h, 0 to 100 scale where 0 is no effect and 100 is complete control, read-out: Pigweed plant response rating
[2] = system: ryegrass, Italian (Italian ryegrass, Lolium multiflorum); experiment: Test A preemergence; conditions: Lolium multiflorum, pre-emergence, 240 h, 0 to 100 scale where 0 is no effect and 100 is complete control, read-out: Ryegrass, Italian plant response rating
Outline: (§1)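 Each rating is a visual injury score from 0 to 100 given about 10 d after treatment, judged against untreated controls kept alongside in the greenhouse. In loam soil–sand blend, seeds got a preemergence directed soil spray, while postemergence plants were 2 to 10 cm tall at spraying.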

[3] = system: Kochia (Kochia scoparia); experiment: Test A preemergence; conditions: Bassia scoparia, pre-emergence, 240 h, 0 to 100 scale where 0 is no effect and 100 is complete control, read-out: Kochia plant response rating
Outline: as §1

[4] = system: giant foxtail (Setaria faberii); experiment: Test A preemergence; conditions: Setaria faberi, pre-emergence, 240 h, 0 to 100 scale where 0 is no effect and 100 is complete control, read-out: Foxtail, Giant plant response rating
Outline: as §1

[5] = system: ragweed (common ragweed, Ambrosia elatior); experiment: Test A preemergence; conditions: Ambrosia artemisiifolia, pre-emergence, 240 h, 0 to 100 scale where 0 is no effect and 100 is complete control, read-out: Ragweed plant response rating
Outline: as §1

[6] = system: barnyardgrass (Echinochloa crus-galli); experiment: Test A preemergence; conditions: Echinochloa crus-galli, pre-emergence, 240 h, 0 to 100 scale where 0 is no effect and 100 is complete control, read-out: Barnyardgrass plant response rating
Outline: as §1

[7] = system: pigweed (Amaranthus retroflexus); experiment: Test A postemergence; conditions: Amaranthus retroflexus, post-emergence, 240 h, 125 g ai/ha, postemergence, visual injury vs untreated controls after approx. 10 d; 0 = no effect, 100 = complete control; read-out: Pigweed plant response rating (0 to 100 scale)
Outline: as §1

[8] = system: wheat (Triticum aestivum); experiment: Test A postemergence; conditions: Triticum aestivum, post-emergence, 240 h, 125 g ai/ha, postemergence, visual injury vs untreated controls after approx. 10 d; 0 = no effect, 100 = complete control; read-out: Wheat plant response rating (0 to 100 scale)
Outline: as §1

[9] = system: ryegrass, Italian (Italian ryegrass, Lolium multiflorum); experiment: Test A postemergence; conditions: Lolium multiflorum, post-emergence, 240 h, 125 g ai/ha, postemergence, visual injury vs untreated controls after approx. 10 d; 0 = no effect, 100 = complete control; read-out: Ryegrass, Italian plant response rating (0 to 100 scale)
Outline: as §1

[10] = system: Kochia (Kochia scoparia); experiment: Test A postemergence; conditions: Bassia scoparia, post-emergence, 240 h
Outline: as §1

[11] = system: giant foxtail (Setaria faberii); experiment: Test A postemergence; conditions: Setaria faberi, post-emergence, 240 h
Outline: as §1

[12] = system: ragweed (common ragweed, Ambrosia elatior); experiment: Test A postemergence; conditions: Ambrosia artemisiifolia, post-emergence, 240 h, 125 g ai/ha, postemergence, visual injury vs untreated controls after approx. 10 d; 0 = no effect, 100 = complete control; read-out: Ragweed plant response rating (0 to 100 scale)
Outline: as §1

[13] = system: Galium (catchweed bedstraw, Galium aparine); experiment: Test A postemergence; conditions: Galium, post-emergence, 240 h
Outline: as §1

[14] = system: corn (Zea mays); experiment: Test A postemergence; conditions: Zea mays, post-emergence, 240 h
Outline: as §1

[15] = system: barnyardgrass (Echinochloa crus-galli); experiment: Test A postemergence; conditions: Echinochloa crus-galli, post-emergence, 240 h
Outline: as §1

[16] = system: blackgrass (Alopecurus myosuroides); experiment: Test A postemergence; conditions: Alopecurus myosuroides, post-emergence, 240 h
Outline: as §1

[17] = system: rice (Oryra sativa); experiment: Test B flooded paddy test; conditions: Oryza sativa, 250 g ai/ha, Flood; 0 to 100 scale where 0 is no effect and 100 is complete control; read-out: Rice plant response rating
Outline: (§2)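 Visual ratings (0 none to 100 complete control) are relative to untreated plants, taken 13–15 d after treatment in a greenhouse. Test material went straight into floodwater standing 3 cm above the soil, kept constant, on plants at the 2-leaf stage.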

[18] = system: sedge, umbrella (small-flower umbrella sedge, Cyperus difformis); experiment: Test B flooded paddy test; conditions: Cyperus difformis, 250 g ai/ha, Flood; 0 to 100 scale where 0 is no effect and 100 is complete control; read-out: Sedge, Umbrella plant response rating
Outline: as §2

[19] = system: barnyardgrass (Echinochloa crus-galli); experiment: Test B flooded paddy test; conditions: Echinochloa crus-galli, 250 g ai/ha, Flood; 0 to 100 scale where 0 is no effect and 100 is complete control; read-out: Barnyardgrass plant response rating
Outline: as §2

[20] = system: ducksalad (Heteranthera limosa); experiment: Test B flooded paddy test; conditions: Heteranthera limosa, 250 g ai/ha, Flood; 0 to 100 scale where 0 is no effect and 100 is complete control; read-out: Ducksalad plant response rating
Outline: as §2

[21] = 125 g ai/ha, preemergence, approx. 10 d

In the case of `CN1C[C@H](c2ccc(C(F)F)cc2)[C@@H](C(=O)Nc2ccccc2S(C)(=O)=O)C1=O` [Compound 1175], the pest or weed control at 31 g/ha ([1]; 31 g ai/ha, Preemergence) is reported as 0%, the pest or weed control at 125 g/ha [1, 21] is reported as 40% and the pest or weed control at 31 g/ha ([2]; 31 g ai/ha, Preemergence) is reported as 0%. It also gave a pest or weed control at 125 g/ha [2, 21] of 20%, a pest or weed control at 31 g/ha ([3]; 31 g ai/ha, Preemergence) of 20% and a pest or weed control at 125 g/ha [3, 21] of 50%. For the same molecule, the pest or weed control at 31 g/ha ([4]; 31 g ai/ha, Preemergence) was 70%, the pest or weed control at 125 g/ha [4, 21] was 90% and the pest or weed control at 31 g/ha ([5]; 31 g ai/ha, Preemergence) was 0%. It also gave a pest or weed control at 125 g/ha [5, 21] of 20%, a pest or weed control at 31 g/ha ([6]; 31 g ai/ha, Preemergence) of 50% and a pest or weed control at 125 g/ha [6, 21] of 90%. For the same molecule, the pest or weed control at 125 g/ha [7] was 20%, the plant injury at 125 g/ha [8] was 40% and the pest or weed control at 125 g/ha [9] was 50%. It also gave a pest or weed control at 125 g/ha ([10]; 125 g ai/ha, postemergence, visual injury vs untreated controls after approx. 10 d, 0 = no effect, 100 = complete control, read-out: Kochia plant response rating (0 to 100 scale)) of 0%, a pest or weed control at 31 g/ha ([10]; Postemergence, 31 g ai/ha, visual injury after approx. 10 d, 0 to 100 scale, 0 no effect, 100 complete control, read-out: Plant response rating, Kochia) of 0% and a pest or weed control at 125 g/ha ([11]; 125 g ai/ha, postemergence, visual injury vs untreated controls after approx. 10 d, 0 = no effect, 100 = complete control, read-out: Foxtail, Giant plant response rating (0 to 100 scale)) of 80%. It also gave a pest or weed control at 31 g/ha ([11]; Postemergence, 31 g ai/ha, visual injury after approx. 10 d, 0 to 100 scale, 0 no effect, 100 complete control, read-out: Plant response rating, Foxtail, Giant) of 50%, a pest or weed control at 125 g/ha [12] of 30% and a pest or weed control at 125 g/ha ([13]; 125 g ai/ha, postemergence, visual injury vs untreated controls after approx. 10 d, 0 = no effect, 100 = complete control, read-out: Galium plant response rating (0 to 100 scale)) of 40%. For the same molecule, the pest or weed control at 31 g/ha ([13]; Postemergence, 31 g ai/ha, visual injury after approx. 10 d, 0 to 100 scale, 0 no effect, 100 complete control, read-out: Plant response rating, Galium) was 20%, the plant injury at 125 g/ha ([14]; 125 g ai/ha, postemergence, visual injury vs untreated controls after approx. 10 d, 0 = no effect, 100 = complete control, read-out: Corn plant response rating (0 to 100 scale)) was 30% and the Corn plant response rating (crop injury, 0 = no effect, 100 = complete kill) at 31 g/ha ([14]; Postemergence, 31 g ai/ha, visual injury after approx. 10 d, 0 to 100 scale, 0 no effect, 100 complete control) was 0%. The pest or weed control at 125 g/ha ([15]; 125 g ai/ha, postemergence, visual injury vs untreated controls after approx. 10 d, 0 = no effect, 100 = complete control, read-out: Barnyardgrass plant response rating (0 to 100 scale)) was 90%, the pest or weed control at 31 g/ha ([15]; Postemergence, 31 g ai/ha, visual injury after approx. 10 d, 0 to 100 scale, 0 no effect, 100 complete control, read-out: Plant response rating, Barnyardgrass) was 50% and the pest or weed control at 125 g/ha ([16]; 125 g ai/ha, postemergence, visual injury vs untreated controls after approx. 10 d, 0 = no effect, 100 = complete control, read-out: Blackgrass plant response rating (0 to 100 scale)) was 50%. For the same molecule, the pest or weed control at 31 g/ha ([16]; Postemergence, 31 g ai/ha, visual injury after approx. 10 d, 0 to 100 scale, 0 no effect, 100 complete control, read-out: Plant response rating, Blackgrass) was 0%, the pest or weed control at 250 g/ha [17] was 10% and the pest or weed control at 250 g/ha [18] was 0%. It also gave a pest or weed control at 250 g/ha [19] of 65% and a pest or weed control at 250 g/ha [20] of 90%.
